In one assay the target is T1, human CRTH2 (Homo sapiens, UniProt Q9Y5Y4).
T1 sequence (Q9Y5Y4 1-395): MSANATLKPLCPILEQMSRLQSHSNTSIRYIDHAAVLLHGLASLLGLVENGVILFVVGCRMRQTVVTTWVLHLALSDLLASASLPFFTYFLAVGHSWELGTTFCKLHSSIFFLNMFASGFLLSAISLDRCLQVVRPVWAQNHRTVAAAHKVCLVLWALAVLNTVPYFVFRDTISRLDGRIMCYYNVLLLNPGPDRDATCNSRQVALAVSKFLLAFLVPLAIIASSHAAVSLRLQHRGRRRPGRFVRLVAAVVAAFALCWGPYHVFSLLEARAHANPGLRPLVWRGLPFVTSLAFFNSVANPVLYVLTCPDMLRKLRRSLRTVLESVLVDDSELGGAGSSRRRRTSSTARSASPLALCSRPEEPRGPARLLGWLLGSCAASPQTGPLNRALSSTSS
Description: Human CRTH2 Receptor Binding Assay (whole cell, [3H]ramatroban competition). Set-up: expressed in transfected cells; host or cells: CHO-K1 (co-transfected with G-alpha16). The following applies: CHO-K1 cells expressing human CRTH2 and G-alpha16; 20 nM [3H]ramatroban; 1 hour, room temperature. The source says:
A whole cell receptor binding assay using [^3H]ramatroban as the competing radioactive ligand was employed to evaluate the compound binding activity to human CRTH2. The radioactive ligand [^3H]ramatroban was synthesized according to Sugimoto et. al. (Eur. J. Pharmacol. 524, 30-37, 2005) to a specific activity of 42 Ci/mmol.
A cell line stably expressing human CRTH2 was established by transfecting CHO-K1 cells with two mammalian expression vectors that harbored human CRTH2 and G-alpha16 cDNAs, respectively, using FuGene® 6 transfection reagent (from Roche). Stable clones expressing CRTH2 were selected by staining each clone with BM16 (BD Pharmingen™ from BD Biosciences, a division of Becton, Dickinson and Company), which is a rat monoclonal antibody to human CRTH2. The cells were maintained as monolayer cultures in Ham's F-12 medium containing 10% fetal bovine serum, 100 units/mL penicillin, 100 μg/mL streptomycin, 2 mM glutamine, 0.5 mg/mL G418 (geneticin) for CRTH2, and 0.2 mg/mL hygromycin-B (for G-alpha 16). For whole cell receptor binding assay, the monolayer cells were rinsed once with PBS (phosphate buffered saline), dissociated using ethylenediaminetetraacetate (Versene™ EDTA from Lonza Inc.), and suspended in PBS containing 10 mM MgCl2 and 0.06% BSA (bovine serum albumin) at 1.5×10^6 cells/mL.
The binding reactions (0.2 mL) were performed in 96-well plates at room temperature in PBS containing 1.5×10^5 cells, 10 mM MgCl2, 0.06% BSA, 20 nM [^3H]ramatroban, and test compound at various concentrations. After 1 hour of binding reactions, the cells were harvested on GF™/B filter microplates (microtiter plates with embedded glass fiber from PerkinElmer, Inc.) and washed 5 times with PBS using a Filtermate™ Harvester (a cell harvester that harvests and washes cells from microplates from PerkinElmer, Inc.). The radioactivities bound to the cells were determined using a microplate scintillation counter (TopCount® NXT, from PerkinElmer, Inc.) after adding 50 μL of Microscint™ 20 scintillation fluid (from PerkinElmer, Inc.) to each well of the filter plates. The radioactivity from non-specific binding was determined by replacing compound with 10 μM of 15(R)-15-methyl PGD2 (from Cayman Chemical Company) in the reaction mixtures. The radioactivity bound to the cells in the absence of compound (total binding) was determined by replacing compound with 0.25% of DMSO (dimethyl sulfoxide) in the reaction mixture. Specific binding data were obtained by subtracting the radioactivity of non-specific binding from each binding data.
(§1) The IC50 value is defined as the concentration of the tested compound that is required for 50% inhibition of total specific binding. In order to calculate the IC50 value, the percent inhibition data were determined for 7 concentrations for each compound. The percent inhibition for a compound at each concentration was calculated according to the following formula, [1−(specific binding in the presence of compound)/(total specific binding)]×100. The IC50 value was then obtained by fitting the percent inhibition data to a sigmoidal dose-response (4 parameter logistic) model in the XLfit® software Excel add-in program [from ID Business Solutions Ltd., model 205, where F(x)=(A+(B−A)/(1+((C/x)̂D)))].

Assay [1] has as its target T2, thromboxane A2 receptor (TP) (Homo sapiens, UniProt P21731).
T2 construct: using human platelets as the source of the receptor; from tissue; host or cells: human platelets (whole platelets, 5x10^7 per well)
T2 sequence (P21731 1-343): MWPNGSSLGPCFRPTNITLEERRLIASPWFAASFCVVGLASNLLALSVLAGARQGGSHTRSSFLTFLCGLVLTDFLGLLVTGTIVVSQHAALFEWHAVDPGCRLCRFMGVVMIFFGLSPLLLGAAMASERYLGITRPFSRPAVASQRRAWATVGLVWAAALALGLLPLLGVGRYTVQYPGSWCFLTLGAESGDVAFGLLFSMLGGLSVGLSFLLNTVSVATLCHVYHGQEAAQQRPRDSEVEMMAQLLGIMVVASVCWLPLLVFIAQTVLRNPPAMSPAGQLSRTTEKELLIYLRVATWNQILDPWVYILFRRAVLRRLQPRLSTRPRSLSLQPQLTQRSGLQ
The assay can be described thus: Human Thromboxane A2 Receptor Binding Assay. The conditions noted are these: human platelets; 10 nM [3H]SQ29548; 1 hour, room temperature.
From the text: The thromboxane A2 receptor (TP) plays a key role in hemostasis as its abnormality leads to bleeding disorders. To avoid the potential liability of bleeding disorders, the binding activity of certain compounds of the present invention against TP was monitored by a receptor binding assay using human platelets as the source of the receptor and [^3H]SQ29548 (generically named (5Z)-[5,6-^3H]-7-[(1S,2R,3R,4R)-3-[[2-[(phenylamino)carbonyl]hydrazinyl]methyl]-7-oxabicyclo[2.2.1]hept-2-yl]-5-heptenoic acid, from PerkinElmer Inc.) as the competing radioactive ligand.
The TP binding reactions (0.2 mL) were performed in 96-well plates at room temperature in PBS containing 5×10^7 platelets, 10 mM MgCl2, 0.06% BSA, 10 nM [^3H]SQ29548, and the test compound at various concentrations. After 1 hour of binding reactions, the platelets were harvested on GF/B filter plates (as previously described from PerkinElmer Inc.) and washed 5 times with PBS using a Filtermate™ Harvester (as previously described from PerkinElmer Inc.). The radioactivities bound to the platelets were determined using a microplate scintillation counter (TopCount® NXT, from PerkinElmer Inc.) after adding 50 μL of Microscint™ 20 scintillation fluid (from PerkinElmer Inc.) to each well of the filter plates. The radioactivity from non-specific binding was determined by replacing the compound with 10 μM of ramatroban (BAY-u3405, from Cayman Chemical Company) in the reaction mixtures. The radioactivity bound to the platelets in the absence of compound (total binding) was determined by replacing the compound with 0.25% of DMSO in the reaction mixture. Specific binding data were obtained by subtracting the radioactivity of non-specific binding from each binding data.
as §1

SMILES strings stand for the structures.

A word on the IC50: it is the midpoint of a concentration-inhibition curve.

For `CC(F)(F)c1cc(C(F)(F)F)cc(S(=O)(=O)N[C@@H]2CCCc3c(OCC(=O)O)cccc32)c1` [Example 10-2, {(R)-5-[3-(1,1-difluoro-ethyl)-5-trifluoromethyl-benzenesulfonylamino]-5,6,7,8-tetrahydro-naphthalen-1-yloxy}-acetic acid], the half-inhibitory concentration (IC50) was 6 nM on human CRTH2 and over 10000 nM in assay [1].

`Cc1cc(C)cc(S(=O)(=O)N[C@@H]2CCCc3c(OCC(=O)O)cccc32)c1` [Example 10-4, [(R)-5-(3,5-dimethyl-benzenesulfonylamino)-5,6,7,8-tetrahydro-naphthalen-1-yloxy]-acetic acid]: the IC50 on human CRTH2 turned out to be 310 nM; in assay [1], 8180 nM.

Take `O=C(O)COc1cccc2c1CCC[C@H]2NS(=O)(=O)c1cc(Br)cc(C(F)(F)F)c1` [Example 10-11, [(R)-5-(3-bromo-5-trifluoromethyl-benzenesulfonylamino)-5,6,7,8-tetrahydro-naphthalen-1-yloxy]-acetic acid]: the IC50 on human CRTH2 was 9 nM; in assay [1], over 10000 nM.

Turning to `CN([C@@H]1CCCc2c(OCC(=O)O)cccc21)S(=O)(=O)c1cc(C(F)(F)F)cc(S(=O)(=O)C2CCCC2)c1` [Example 3-1, {(R)-5-[(3-cyclopentanesulfonyl-5-trifluoromethyl-benzenesulfonyl)-methyl-amino]-5,6,7,8-tetrahydro-naphthalen-1-yloxy}-acetic acid], the IC50 at human CRTH2 is 2.9 nM; in assay [1] it was over 10000 nM.

As to `CC(C)c1cc(C(F)(F)F)cc(S(=O)(=O)N(C)[C@@H]2CCCc3c(OCC(=O)O)cccc32)c1` [Example 8-1, {(R)-5-[(3-isopropyl-5-trifluoromethyl-benzenesulfonyl)-methyl-amino]-5,6,7,8-tetrahydro-naphthalen-1-yloxy}-acetic acid], the IC50 on human CRTH2 was 91.2 nM; in assay [1], over 10000 nM.

For the compound `CN([C@@H]1CCCc2c(OCC(=O)O)cccc21)S(=O)(=O)c1cc(C(F)(F)F)cc(S(=O)(=O)C(C)(C)C)c1` [Example 3-3, ((R)-5-{methyl-[3-(2-methyl-propane-2-sulfonyl)-5-trifluoromethyl-benzenesulfonyl]-amino}-5,6,7,8-tetrahydro-naphthalen-1-yloxy)-acetic acid], the IC50 at human CRTH2 was 3.4 nM; in assay [1] it was over 10000 nM.

On to `O=C(O)COc1cccc2c1CCC[C@H]2NS(=O)(=O)c1cc(C(F)(F)F)cc(C(F)(F)F)c1` [Example 10-3, [(R)-5-(3,5-bis-trifluoromethyl-benzenesulfonylamino)-5,6,7,8-tetrahydro-naphthalen-1-yloxy]-acetic acid], for which the IC50 was 6.3 nM at human CRTH2 and over 10000 nM in assay [1].

`CC(C)S(=O)(=O)c1cc(C(F)(F)F)cc(S(=O)(=O)N(C)[C@@H]2CCCc3c(OCC(=O)O)cccc32)c1` [Example 3-2, ((R)-5-{methyl-[3-(propane-2-sulfonyl)-5-trifluoromethyl-benzenesulfonyl]-amino}-5,6,7,8-tetrahydro-naphthalen-1-yloxy)-acetic acid]: the figures for the IC50 (at human CRTH2; in assay [1]) were 3.6 nM and over 10000 nM, respectively.

Take `CC(C)c1cc(C(F)(F)F)cc(S(=O)(=O)N[C@@H]2CCCc3c(OCC(=O)O)cccc32)c1` [Example 10-6, [(R)-5-(3-isopropyl-5-trifluoromethyl-benzenesulfonylamino)-5,6,7,8-tetrahydro-naphthalen-1-yloxy]-acetic acid]: the IC50 on human CRTH2 was 13.5 nM; in assay [1], over 10000 nM.

`CC1(c2cc(C(F)(F)F)cc(S(=O)(=O)N[C@@H]3CCCc4c(OCC(=O)O)cccc43)c2)CC1` [Example 10-7, {(R)-5-[3-(1-methyl-cyclopropyl)-5-trifluoromethyl-benzenesulfonylamino]-5,6,7,8-tetrahydro-naphthalen-1-yloxy}-acetic acid]: the IC50 at human CRTH2 was 18.4 nM; in assay [1], over 10000 nM.

Consider `CC(=O)c1cc(C(F)(F)F)cc(S(=O)(=O)N(C)[C@@H]2CCCc3c(OCC(=O)O)cccc32)c1` [Example 6-1, {(R)-5-[(3-acetyl-5-trifluoromethyl-benzenesulfonyl)-methyl-amino]-5,6,7,8-tetrahydro-naphthalen-1-yloxy}-acetic acid], for which the IC50 at human CRTH2 is 78.2 nM; in assay [1] it was over 10000 nM.

Consider `COc1cc(C(F)(F)F)cc(S(=O)(=O)N[C@@H]2CCCc3c(OCC(=O)O)cccc32)c1` [Example 10-10, [(R)-5-(3-methoxy-5-trifluoromethyl-benzenesulfonylamino)-5,6,7,8-tetrahydro-naphthalen-1-yloxy]-acetic acid], for which the IC50 was 18 nM on human CRTH2 and over 10000 nM in assay [1].

Regarding `CN([C@@H]1CCCc2c(OCC(=O)O)cccc21)S(=O)(=O)c1cc(C(C)(C)C)cc(C(C)(C)C)c1` [Example 1-2, {(R)-5-[(3,5-di-tert-butyl-benzenesulfonyl)-methyl-amino]-5,6,7,8-tetrahydro-naphthalen-1-yloxy}-acetic acid], the IC50 at human CRTH2 was 177 nM; in assay [1], over 10000 nM.

`CN([C@@H]1CCCc2c(OCC(=O)O)cccc21)S(=O)(=O)c1cc(C(C)(F)F)cc(C(F)(F)F)c1` [Example 5-1, ((R)-5-{[3-(1,1-difluoro-ethyl)-5-trifluoromethyl-benzenesulfonyl]-methyl-amino}-5,6,7,8-tetrahydro-naphthalen-1-yloxy)-acetic acid]: the IC50 on human CRTH2 was 16.5 nM; in assay [1], over 10000 nM.

The values are drawn from patent US20100041760A1, “MONOARYL AMINOTETRALINES” (priority 2008, published 2010).
